Data on three compounds can be found in ChEMBL document CHEMBL1131884, “Dicationic 2-fluorenonylcarbapenems: potent anti-MRS agents with improved solubility and pharmacokinetic properties” (Bioorg Med Chem Lett, 1999).

Data set [1] is described as follows: Glomerular Filtration Rate(GFR) evaluated in Rhesus monkeys at the dose of 10 mg/kg by iv bolus injection. Type of data set: ADME, organism-based. On the set-up: dose 10 mg/kg, route intravenous. Conditions: cercopithecidae, in vivo.
A short description of data set [2]: Plasma clearance evaluated in Rhesus monkeys at the dose of 10 mg/kg by iv bolus injection. The conditions noted are these: cercopithecidae. Also on record: dose 10 mg/kg, route intravenous. The class given is ADME, organism-based.
Data set [3] can be described thus: Renal clearance evaluated in Rhesus monkeys at the dose of 10 mg/kg by iv bolus injection. The class given is ADME, organism-based, Kidney. Also on record: dose 10 mg/kg, route intravenous. Conditions: cercopithecidae, in vivo, read-out: Renal clearance.
The nature of data set [4]: Half life evaluated in Rhesus monkeys at the dose of 10 mg/kg by iv bolus injection. Type of data set: ADME, organism-based. On the set-up: dose 10 mg/kg, route intravenous. The conditions noted are these: cercopithecidae, in vivo, read-out: Beta t1/2 (converted).
A short description of data set [5]: AUC (area under curve) evaluated in Rhesus monkeys at the dose of 10 mg/kg by iv bolus injection. Also on record: dose 10 mg/kg, route intravenous. Conditions: cercopithecidae. Type of data set: ADME, organism-based, Plasma.
Data set [6] concerns the target T1, Dipeptidase 1 (Sus scrofa) (UniProt P22412).
T1 sequence (whole entry): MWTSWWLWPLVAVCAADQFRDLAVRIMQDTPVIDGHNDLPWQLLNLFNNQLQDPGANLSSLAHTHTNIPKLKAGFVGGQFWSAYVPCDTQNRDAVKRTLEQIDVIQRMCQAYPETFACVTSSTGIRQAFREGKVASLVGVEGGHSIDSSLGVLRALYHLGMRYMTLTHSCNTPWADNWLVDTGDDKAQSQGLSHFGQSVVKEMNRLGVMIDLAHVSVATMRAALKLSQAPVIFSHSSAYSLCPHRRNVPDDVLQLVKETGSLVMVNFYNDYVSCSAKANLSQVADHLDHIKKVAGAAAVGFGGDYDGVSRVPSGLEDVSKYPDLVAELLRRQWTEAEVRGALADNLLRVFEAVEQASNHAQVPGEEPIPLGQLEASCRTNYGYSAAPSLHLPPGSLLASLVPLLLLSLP
Kind of data set: Susceptibility to mammalian dehydropeptidase, DHP-1(Porcine).

The subject of data set [7] is Enterococcus faecalis. Put plainly: Antibacterial activity against Enterococcus faecalis. Type of data set: functional.
For data set [8], the system named is Enterococcus faecalis. Kind of data set: Antibacterial activity against vancomycin-resistant Enterococcus faecalis strain. Type of data set: functional.
The next data set concerns Enterococcus faecium. Put plainly: Antibacterial activity against vancomycin-resistant Enterococcal faecium strain. The class given is functional.
The test system of another data set is Bacteria. Kind of data set: Antibacterial activity against Gram negative bacteria. Type of data set: functional.
In data set [9] the test system is Mus musculus. Put plainly: In vivo antibacterial activity against MSSA MB 2985 strain at the dose ~4 *10e7 cfu in brain heart broth along with antibiotic by sc administration at 0 hour in mice. The class given is functional.
In data set [10] the test system is Mus musculus. Kind of data set: In vivo antibacterial activity against MSSA MB 2985 strain at the dose ~4 *10e7 cfu in brain heart broth along with antibiotic by administration at 0 hour in mice. Type of data set: functional.
For a further data set, the target named is T2, MecA (Staphylococcus aureus, UniProt Q7DHH4).
T2 sequence (Q7DHH4 whole entry): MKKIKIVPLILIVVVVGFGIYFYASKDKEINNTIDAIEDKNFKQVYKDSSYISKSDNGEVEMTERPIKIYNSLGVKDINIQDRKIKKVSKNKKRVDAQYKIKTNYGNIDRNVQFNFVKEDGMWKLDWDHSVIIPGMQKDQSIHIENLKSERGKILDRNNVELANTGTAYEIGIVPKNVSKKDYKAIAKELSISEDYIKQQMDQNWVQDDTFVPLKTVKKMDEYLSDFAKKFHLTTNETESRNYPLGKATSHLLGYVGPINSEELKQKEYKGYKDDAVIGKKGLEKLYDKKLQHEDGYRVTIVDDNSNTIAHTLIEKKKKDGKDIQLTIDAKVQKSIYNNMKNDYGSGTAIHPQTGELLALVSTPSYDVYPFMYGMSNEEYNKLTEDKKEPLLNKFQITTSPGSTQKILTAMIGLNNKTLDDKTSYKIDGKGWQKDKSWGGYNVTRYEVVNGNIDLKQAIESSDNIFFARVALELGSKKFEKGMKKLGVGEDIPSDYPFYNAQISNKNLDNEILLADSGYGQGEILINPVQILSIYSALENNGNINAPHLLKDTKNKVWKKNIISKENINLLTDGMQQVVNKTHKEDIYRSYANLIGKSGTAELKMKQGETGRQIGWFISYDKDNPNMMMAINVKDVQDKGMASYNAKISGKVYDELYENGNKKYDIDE
Kind of data set: Binding affinity against PBP2a receptor by competition analysis with [3H]benzylpenicillin using cell membrane fractions from the MRSA COL strain.

A further data set deals with Staphylococcus sp. Kind of data set: Antibacterial activity against methicillin-resistant coagulase negative Staphylococci (MRCNS). Type of data set: functional.
Data set [11] has as its system Staphylococcus aureus. Put plainly: Antibacterial activity against MSSA (Methicillin-sensitive Staphylococcus aureus). The class given is functional.
A further data set has as its system Streptococcus pneumoniae. Kind of data set: Antibacterial activity against penicillin-resistant Streptococcus pneumoniae. The class given is functional.
The test system of data set [12] is Staphylococcus aureus. Kind of data set: Antibacterial activity against methicillin-resistant Staphylococcus aureus (MRSA). The class given is functional.
Data set [13] concerns Mus musculus. Put plainly: In vivo antibacterial activity against MRSA 76 virginia strain at the dose ~1 *10e7 cfu in 5 percent hog gastric mucin along with antibiotic by sc administration at 0 and +4 hrs in mice. Type of data set: functional.
Data set [14] relates to Streptococcus pyogenes. Kind of data set: Antibacterial activity against Streptococcus pyogenes.
Data set [15] can be described thus: Half life compared to Cilastatin evaluated in Rhesus monkeys at the dose of 10 mg/kg by iv bolus injection. The class given is ADME, organism-based. Also on record: dose 10 mg/kg, route intravenous. Conditions: cercopithecidae, in vivo, read-out: Beta t1/2 (converted).
The nature of data set [16]: Plasma clearance compared to Cilastatin evaluated in Rhesus monkeys at the dose of 10 mg/kg by iv bolus injection. On the set-up: dose 10 mg/kg, route intravenous. The class given is ADME, organism-based. Conditions: cercopithecidae.
Data set [17] in a line: Renal clearance compared to Cilastatin evaluated in Rhesus monkeys at the dose of 10 mg/kg by iv bolus injection. Conditions: cercopithecidae, in vivo, read-out: Renal clearance. Also on record: dose 10 mg/kg, route intravenous. Type of data set: ADME, organism-based, Kidney.
Data set [18] is described as follows: Urinary recovery compared to Cilastatin evaluated in Rhesus monkeys at the dose of 10 mg/kg by iv bolus injection. Type of data set: ADME, organism-based, Urine. On the set-up: dose 10 mg/kg, route intravenous. Conditions: cercopithecidae, in vivo.
Data set [19] in a line: AUC (area under curve) compared to Cilastatin evaluated in Rhesus monkeys at the dose of 10 mg/kg by iv bolus injection. Type of data set: ADME, organism-based. The conditions noted are these: cercopithecidae, plasma. Also on record: dose 10 mg/kg, route intravenous.
A short description of data set [20]: Glomerular Filtration Rate(GFR)of the compound compared to Cilastatin evaluated in Rhesus monkeys at the dose of 10 mg/kg by iv bolus injection. Type of data set: ADME, organism-based. Also on record: dose 10 mg/kg, route intravenous. Conditions: cercopithecidae, in vivo.
Data set [21] addresses T1, Dipeptidase 1 (Sus scrofa). Put plainly: Susceptibility to mammalian dehydropeptidas, DHP-1(Porcine).
For data set [22], the system named is Streptococcus pyogenes. Put plainly: Antibacterial activity against Streptococcus pyogenes. Type of data set: functional.

Values after ≈ are worked out from the molar mass of the structure shown.

For the compound `C[C@@H](O)[C@H]1C(=O)N2C(C(=O)[O-])=C(c3ccc4c(c3)-c3ccc(C[N+]56CC[N+](CC(N)=O)(CC5)CC6)cc3C4=O)C[C@H]12.[Cl-]`, the GFR in data set [1] was 2.96 mL/min/kg. For the same compound, the clearance (as a rule, the rate of elimination divided by the concentration) in data set [2] turned out to be 4.74 mL/min/kg. For the same compound, in data set [3], the CL renal came to 1.88 mL/min/kg. The half-life in [4] is 54.6 min. This compound yielded an AUC in data set [5] (in vivo) of 35.14 µg/mL. The same compound gave a Rate of hydrolysis in data set [6] of 0.055. Further, the MIC (usually the least concentration at which growth counts as inhibited) with Enterococcus faecalis [7] was 0.125 µg/mL; in the data set with Enterococcus faecalis [8], 2 µg/mL; against Enterococcus faecium, 16 µg/mL; against Bacteria it was 1.05 µg/mL; against Mus musculus [10], 0.004 µg/mL; in the data set on Staphylococcus aureus [11] it was 0.03 µg/mL. Moreover, the MIC was 0.09 µg/mL against Streptococcus pneumoniae, 1 µg/mL with Mus musculus [13] and below 0.031 µg/mL with Streptococcus pyogenes [14]. Moreover, the ED50 in the data set with Mus musculus [9] was found to be 0.042 mg/kg; in the data set on Mus musculus [13], 0.5 mg kg-1 dose-1. Also, on MecA, the IC50 (as a rule, the concentration needed to halve the response being measured) is 573 nM. For the same compound, the figures for the MIC50 against Staphylococcus sp. and against Staphylococcus aureus [12] were 2 µg/mL and 1 µg/mL, respectively. The MIC90 – broadly, an inhibitory concentration at the 90% level, which refers to growth in some studies and to a panel of isolates in others – against Staphylococcus sp. came out at 2 µg/mL; with Staphylococcus aureus [12] it was 4 µg/mL.

For the compound `C[C@@H](O)[C@H]1C(=O)N2C(C(=O)O)=C(SCCN=CN)C[C@H]12` [IMIPENEM ANHYDROUS], in data set [15], the half-life was 36 min. Also, the clearance in data set [16] worked out at 6.72 mL/min/kg. Besides, the CL renal in data set [17] is 5.44 mL/min/kg. The compound also returned a Urinary recovery in data set [18] of 82. Moreover, the AUC in data set [19] turned out to be 24800 ng·h/mL. For the same compound, the IC50 at MecA is 334000 nM. In addition, in data set [20], the GFR amounted to 2.98 mL/min/kg.

Take `C[C@@H](O)[C@H]1C(=O)N2C(C(=O)[O-])=C(c3ccc4c(c3)-c3ccc(C[n+]5ccn(C)c5)cc3C4=O)C[C@H]12`: the GFR in data set [1] stood at 3.19 mL/min/kg. In addition, the clearance in data set [2] amounted to 5.56 mL/min/kg. In addition, the CL renal in data set [3] was found to be 2.34 mL/min/kg. Also, the half-life in data set [4] was 70.2 min. For the same compound, the AUC in [5] (plasma, read-out: AUC) came out at 30400 ng·h/mL. The compound also registered a Rate of hydrolysis in data set [21] of 0.078. Besides, the MIC with Enterococcus faecalis [7] is 0.125 µg/mL (≈ 0.266 µM); with Enterococcus faecalis [8] it was 1 µg/mL (≈ 2.13 µM); in the data set with Enterococcus faecium, 4 µg/mL (≈ 8.52 µM); in the data set on Bacteria, 1.37 µg/mL (≈ 2.92 µM); in the data set with Mus musculus [10] it was 0.008 µg/mL (≈ 0.017 µM); with Staphylococcus aureus [11] it was 0.03 µg/mL (≈ 0.0639 µM). The MIC was below 0.031 µg/mL in the data set on Streptococcus pyogenes [22], below 0.03 µg/mL in the data set with Streptococcus pneumoniae and 1 µg/mL (≈ 2.13 µM) against Mus musculus [13]. For the same compound, the ED50 came to 0.034 mg/kg in the data set with Mus musculus [9] and 0.92 mg kg-1 dose-1 in the data set on Mus musculus [13]. For the same compound, at MecA, the IC50 is 1060 nM. Further, the MIC50 (commonly the lowest concentration that inhibits either 50% of growth or 50% of the strains tested, depending on the study) with Staphylococcus sp. came out at 2 µg/mL (≈ 4.26 µM); with Staphylococcus aureus [12], 1 µg/mL (≈ 2.13 µM). Moreover, the MIC90 was 4 µg/mL (≈ 8.52 µM) against Staphylococcus sp. and 2 µg/mL (≈ 4.26 µM) against Staphylococcus aureus [12].
